This is an account of results in patent publication US8642622B2, “Piperidinyl compound as a modulator of chemokine receptor activity” (Bristol-Myers Squibb Company, priority 2010, dated 2014).

Data set [1] in a line: Human liver microsomal metabolism, Assay Conditions A. The data set is classed as in vitro ADME. As to conditions: 0.5 μM compound, 10 minutes, 37° C. As for the experimental part: Test compound is received as a 3.5 mM stock solution in 100 percent DMSO. Compound is diluted to create a 50 μM acetonitrile (ACN) solution containing 1.4% DMSO, which is then used as a 100× stock for incubation with microsomes. Each compound is tested in duplicate separately in each of three species in the Metabolic Stability-Human, Rat, and Mouse assay suite or as individual species in the Metabolic Stability-Dog or Metabolic Stability-Monkey suites. Compound, NADPH and liver microsome solutions are combined for incubation in three steps:
152 μL of liver microsome suspension, protein concentration of 1.1 mg/mL in 100 mM NaPi, pH 7.4, 6.6 mM MgCl2 buffer, is pre-warmed at 37° C.
• 1) 1.7 μL of 50 μM compound (98.6% ACN, 1.4% DMSO) is added to the same tube and pre-incubated at 37° C. for 5 minutes. • 2) The reaction is initiated by the addition of 17 μL of pre-warmed 10 mM NADPH solution in 100 mM NaPi, pH 7.4. • 3) Reaction components are mixed well, and 75 μL are immediately transferred into 150 μl quench/stop solution (zero-time point, To). Reactions are incubated at 37° C. for 10 minutes and then an additional 75 μL aliquot is transferred into 150 μL quench solution. Acetonitrile containing 100 μM DMN (a UV standard for injection quality control), is used as the quench solution to terminate metabolic reactions. • 4) Quenched mixtures are centrifuged at 1500 rpm (˜500×g) in an Allegra X-12 centrifuge, SX4750 rotor (Beckman Coulter Inc., Fullerton, Calif.) for fifteen minutes to pellet denatured microsomes. A volume of 90 μL of supernatant extract, containing the mixture of parent compound and its metabolites, is then transferred to a separate 96-well plate for UV-LC/MS-MS analysis to determine the percent of parent compound that is remaining in the mixture.

The nature of data set [2]: Single-dose pharmacokinetics in rats. As to conditions: male, Sprague-Dawley, rat, plasma; for clearance: intravenous; for bioavailability: po, oral solution, read-out: Rat oral bioavailability when dosed as solution. The data set is classed as in vivo. On the procedure: Serial blood samples were collected for all studies from the jugular vein at various time points post dose (0.17 (or 0.25 for oral), 0.5, 0.75, 1, 2, 4, 6, 8 and 24 h, for example). Plasma samples were analyzed by LC-MS/MS.
Additional studies evaluating suspensions of crystalline drug substance in aqueous medium were performed as described above.

A short description of data set [3]: Human liver microsomal metabolism, Assay Conditions B. The class given is in vitro ADME. As to conditions: 3 μM compound, 10 minutes, 37° C. As for the experimental part:
Test compound is received as 20 mM in DMSO. Compound is diluted to create a 300 μM acetonitrile (ACN) solution containing 1.5% DMSO, which is then used as a 100× stock for incubation with microsomes. Each compound is tested in duplicate separately in each of three species in the Metabolic Stability-Human, Rat, Mouse assay suite or individual species in the Metabolic Stability-Dog or Metabolic Stability-Monkey suites. Compound, NADPH and liver microsome solutions are combined for incubation in three steps: • 1. 450 μL of liver microsome suspension, protein concentration of 1 mg/mL in 100 mM NaPi, pH 7.4, 6.6 mM MgCl2 buffer, are pre-warmed at 37° C. • 2. […] of 300 μM compound (98.5% CAN, 1.5% DMSO) is added to the same tube. • 3. The reaction is initiated by the addition of 50 μL of pre-warmed 5 mM NADPH solution in 100 mM NaPi, pH 7.4.
Reaction components are mixed well and 150 μL removed to quench/stop solution immediately for the zero-minute time point. Reactions are incubated at 37° C. for 10 minutes and then an additional 150 μL removed from incubation. Aliquots removed are combined with 300 μL ACN which contains 100 μM DMN as a UV standard for detection.
Quenched mixtures are centrifuged at 1500 rpm (˜500×g) in an Allegra X-12 centrifuge, SX4750 rotor (Beckman Coulter Inc., Fullerton, Calif.) for fifteen minutes to pellet denatured microsomes. A volume of 110 μl of supernatant extract, containing the mixture of parent compound and its metabolites, is then transferred to a separate 96-well plate for UV-LC/MS-MS analysis to determine the percent of parent compound that is remaining in the mixture.
Background: Liver microsomes are a subcellular fraction often used to study metabolism.

The target in data set [4] is T1, Human PXR (Homo sapiens, UniProt O75469).
T1 construct: expressed in transfected cells; host or cells: HepG2
T1 sequence (O75469 1-434): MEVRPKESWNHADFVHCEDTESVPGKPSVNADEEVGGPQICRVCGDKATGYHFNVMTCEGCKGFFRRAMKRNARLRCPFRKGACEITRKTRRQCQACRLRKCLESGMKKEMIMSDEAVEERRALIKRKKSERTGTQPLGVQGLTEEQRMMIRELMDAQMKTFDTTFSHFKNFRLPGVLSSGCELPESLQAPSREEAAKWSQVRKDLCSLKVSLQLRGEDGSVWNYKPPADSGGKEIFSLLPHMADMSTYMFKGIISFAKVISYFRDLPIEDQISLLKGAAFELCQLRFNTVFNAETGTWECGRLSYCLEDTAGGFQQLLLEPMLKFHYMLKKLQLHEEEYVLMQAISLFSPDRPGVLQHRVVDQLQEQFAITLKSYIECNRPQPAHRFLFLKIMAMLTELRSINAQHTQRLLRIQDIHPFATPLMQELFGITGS
The experiment in a line: PXR transactivation assay (HepG2, CYP3A-Luc reporter). The class given is cell-based. The settings on record: reported as EC60. From the text:
The cell culture medium used is DMEM. […] Charcoal/dextran treated fetal bovine serum (FBS) was purchased from Hyclone (Logan, Utah). HepG2 cells were obtained from ATCC (Manassas, Va.). Human PXR-pcDNA3 and luciferase reporter containing CYP3A4 promoter, CYP3A-Luc, were generated at Bristol-Myers Squibb. White tissue culture (TC)-surface 384-well plates were purchased from Perkin Elmer (Boston, Mass.). Luciferase substrate (Steady-Glo) was purchased from Promega (Madison, Wis.). Control compounds rifampicin, mifepristone, and sulfinpyrazone were purchased from Sigma (St. Louis, Mo.).
Culture of HepG2 cells is performed in T175 flasks using DMEM containing 10% FBS. The transfection mixture contains 1 μg/mL of PXR-pcDNA3 plasmid DNA, 20 μg/ml of Cyp3A-Luc plasmid DNA, 90 μL/mL of Lipofectamine 2000, and serum-free medium. After incubating at room temperature for 20 minutes, the transfection mixture (1 ml per flask) is applied to the cells in fresh medium (20 mL per flask), and flasks incubated at 37° C. (5% CO2) overnight.
The flasks are then tapped vigorously to break up cell aggregates. After the addition of 8 mL of DMEM containing 5% charcoal/dextran-treated FBS, the entire mixture is transferred to conical tubes. Cells are then centrifuged at 1000 rpm for 5 minutes. Cell pellets are resuspended to a final count of ˜7×10^6 cells/mL in freezing media (DMEM containing 20% serum and 10% DMSO). The cell suspension is aliquoted into 15-mL polypropylene tubes, 5 mL per tube. Cells are slowly frozen by placing in a Styrofoam-insulated container at −80° C. overnight. Vials are transferred to an Ultracold (−140° C.) freezer after 24 hours for long-term storage.
Vials of cryopreserved cells are thawed rapidly in a warm water bath for five minutes. Cells are pooled and diluted to 50 mL in a 50-mL conical vial. The thawed cells are centrifuged at 1500 rpm for 5 minutes to collect the cells and the supernatant discarded. Cells are then resuspended in fresh Media II (DMEM containing 5% charcoal/dextran-treated FBS, 1% Penicillin/Streptomycin, 100 μM Non-essential Amino Acids, 1 mM Sodium Pyruvate, and 2 mM L-Glutamine), counted using the Guava Cell Counter, and diluted to 1.6×10^5 cells/ml in the same media.
Fifty microliters of cell mixture is added to wells in columns 1-23 of white tissue-culture treated 384-well plates containing 0.25 μL of test compound dissolved in 100% DMSO. Fifty microliters of Media II is added to wells in column 24. The plates are incubated at 37° C. (5% CO2) for 24 hours, then 5 μL of Alamar Blue reagent (Trek Diagnostics, Cat #00-100) is added to each well. Plates are then incubated an additional two hours at 37° C., 5% CO2 and then one hour at room temperature. […] After the fluorescence is measured, 25 μL of luciferase substrate (Steady-Glo, Promega) is added to each well. The plates are incubated for fifteen minutes at room temperature, after which the luminescence is read on a PheraStar (BMG Labtech) plate reader.
Rifampicin (10 μM), a well-known agonist of PXR, is included in each plate as an internal standard and positive control. The data is then expressed as percent control (% CTRL), where the control signal is the signal from the 10 μM rifampicin and the blank signal is that from the DMSO vehicle. % CTRL=((Compound signal−Blank signal)/(Control signal−Blank signal))*100
The EC50 is defined as the concentration corresponding to half of the maximal response derived from the fitted 20-point curve as determined using a four-parameter logistic regression model. Additionally, compounds may also be reported as EC20 or EC60.

As to `CC(C)[C@@H](NC(=O)C1CCCC1)C(=O)N1CC[C@](O)(c2ccc(Cl)cc2)C(C)(C)C1` [Example 460], the “Human Liver Microsomal Metabolism % remaining (Assay Conditions A)” value in data set [1] was 47%. Besides, in data set [2], the clearance amounted to 10 mL/min/kg and the bioavailability amounted to 8%. Also, the “Human Liver Microsomal Metabolism % remaining (Assay Conditions B)” value in data set [3] is on record as 16%.

For the compound `CC(C)[C@@H](NC(=O)c1cccc(C(=O)O)c1)C(=O)N1CC[C@](O)(c2ccc(Cl)cc2)C(C)(C)C1` [Example 463], in data set [2], the clearance is 75 mL/min/kg and the bioavailability came to 9%.

As to `CC(C)CC(=O)N[C@@H](C(=O)N1CC[C@](O)(c2ccc(Cl)cc2)C(C)(C)C1)C(C)C` [Example 466], the “Human Liver Microsomal Metabolism % remaining (Assay Conditions A)” value in data set [1] amounted to 67%. The “PXR EC60” value in data set [4] is listed as 1.12 (EC60) μM. For the same compound, the “Human Liver Microsomal Metabolism % remaining (Assay Conditions B)” value in data set [3] turned out to be 33%.

Regarding `CC(C)NC(=O)N[C@@H](C(=O)N1CC[C@](O)(c2ccc(Cl)cc2)C(C)(C)C1)C(C)C` [Example 850], the “Human Liver Microsomal Metabolism % remaining (Assay Conditions A)” value in data set [1] is given as 99% (A). Besides, the “PXR EC60” value in data set [4] is listed as 10.2 (EC60) μM.

Take `CC[C@@H](C)NC(=O)N[C@@H](C(=O)N1CC[C@](O)(c2ccc(Cl)cc2)C(C)(C)C1)C(C)C` [Example 897]: the “Human Liver Microsomal Metabolism % remaining (Assay Conditions A)” value in data set [1] is 59% (A). The “PXR EC60” value in data set [4] was >50 (EC60) μM.

For the compound `CC(C)[C@@H](NC(=O)CC(C)(C)O)C(=O)N1CC[C@](O)(c2ccc(Cl)cc2)C(C)(C)C1` [Example 1356], the “Human Liver Microsomal Metabolism % remaining (Assay Conditions A)” value in data set [1] is 100% (A)/100% (B). The “Human Liver Microsomal Metabolism % remaining (Assay Conditions B)” value in data set [3] was 100% (A)/100% (B).

By clearance is commonly meant a measure of how efficiently the substance is removed, as volume per time. A higher clearance goes with efficient removal. In general, bioavailability refers to the share of a dose that reaches the circulation, judged against a reference dose that is usually intravenous.
